Data: patent US20090253794A1, “Fibroblast Activator, Collagen Production Promoter, Collagen Contraction Promoter, Hyaluronic Acid Production Promoter, ATP Production Promoter, Melanin Formation Inhibitor, and Agent for External Application to the Skin” (priority 2005, published 2009)
Entries after “also recorded” stand apart in the source; their conditions may differ.

Assays:
[1] = tested on: B16 melanoma cells; assay: melanin formation suppression test, visual whitening and cell mass volume; format: cell-based, mouse; design: key to level of whitening: whitening high→++; whitening moderate→+; somewhat whitened→+−; no whitening→−; conditions: 5 days; for level of whitening: visual evaluation; for change in cell mass volume: visual, cytotoxicity index
Description: A melanin formation suppression test was performed as follows using mouse melanoma cells. First, 2×10^4 B16 melanoma cells were plated in a 35 mm diameter dish containing Eagle's minimum nutrition medium (3 ml) supplemented with 10% (v/v) fetal bovine serum, and cultured in a carbon dioxide incubator adjusted to 5% (v/v) carbon dioxide gas at 37° C. for about 24 hr. Then, pure water or a sample dissolved in pure water was added thereto to a final concentration of 0.1 mM, 1.0 mM or 10 mM. As a positive control, kojic acid (manufactured by Sigma Ltd.) was added to the same concentration. The cells were cultured for 5 more days under the same conditions, treated with trypsin, and centrifuged to collect the cells in a 1.5 ml Eppendorf. The level of whitening of the cells was visually evaluated, and indicated: whitening high→++; whitening moderate→+; somewhat whitened→+−; no whitening→−. Simultaneously, changes in the cell mass volume was visually evaluated and used as a cytotoxicity index.

[2] = tested on: human normal melanocytes; assay: melanin formation suppression test in human melanocytes (L-DOPA, absorbance 495 nm); format: cell-based; conditions: 5 days, relative value, without addition of sample = 100
Description: A melanin formation suppression test was performed using human melanocytes (manufactured by KURABO INDUSTRIES LTD.). That is, human normal melanocytes amplified in Medium 254 medium (human melanocyte medium added with HMGS, manufactured by KURABO INDUSTRIES LTD.) was added to a 96 well plate at 10^4 cells per well, and cultured in a carbon dioxide incubator adjusted to 5% (v/v) carbon dioxide gas at 37° C. for about 24 hr. Then, pure water or a sample (conagenin) dissolved in pure water was added thereto to a final concentration of 0.1 mM, 1.0 mM or 10 mM. As a positive control, kojic acid (manufactured by Sigma Ltd.) was added to the same concentration. The cells were cultured for 5 more days under the same conditions. To the recovered cells was added 50 μl of cell suspension (PBS buffer containing Triton X-100 at 0.1% (v/v)). After thorough suspending, the suspension was stood at 4° C. for 1 hr. Thereto was added 50 μl of 10 mM L-DOPA (manufactured by Nacalai Tesque), and the mixture was incubated at 37° C. for 1 hr. Thereafter, the absorbance at 495 nm was measured by a plate reader (multiscanplus MKII, manufactured by Japan Flow Laboratory), and the melanin formation amount was measured (shown in a relative value to the value without addition of sample as 100).

`O=c1cc(CO)occ1O` [kojic acid, reference compound] was tested, and the level of whitening ([1]; 0.1 mM) was “+−”, the “change in cell mass volume” value ([1]; 0.1 mM) was “none” and the level of whitening ([1]; 1 mM) was “+”. The “change in cell mass volume” value ([1]; 1 mM) was “none”, the “change in cell mass volume” value ([1]; 10 mM) was “cell death occurred; also recorded: yes (cell death)” and the melanin formation amount ([2]; 100 μM) was 105. The melanin formation amount ([2]; 1 mM) was 88.
